Literature values in patent publication US12557843B2, “Other than cannabinoids, flavonoids, and terpenes” (priority 2020, dated 2026).

Tests used:
[1] = tested on: monoamine oxidase enzyme (MAO)
acetylcholinesterase = acetylcholinesterase (Homo sapiens, UniProt P22303)
CB2 cannabinoid receptor = CB2 cannabinoid receptor (Homo sapiens, UniProt P34972)
CB2 cannabinoid receptor, sequence (P34972 whole entry): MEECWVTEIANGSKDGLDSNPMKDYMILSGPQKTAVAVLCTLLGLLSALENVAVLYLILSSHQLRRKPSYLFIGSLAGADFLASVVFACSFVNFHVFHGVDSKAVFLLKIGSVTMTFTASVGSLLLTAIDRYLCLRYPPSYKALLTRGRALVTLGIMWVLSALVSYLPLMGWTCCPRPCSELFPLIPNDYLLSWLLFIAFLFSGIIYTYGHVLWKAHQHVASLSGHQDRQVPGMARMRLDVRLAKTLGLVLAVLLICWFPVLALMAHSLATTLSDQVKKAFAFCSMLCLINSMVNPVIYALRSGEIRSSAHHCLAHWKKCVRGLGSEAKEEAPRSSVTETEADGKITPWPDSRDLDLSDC

acetylcholinesterase, sequence (P22303 32-614, species assumed): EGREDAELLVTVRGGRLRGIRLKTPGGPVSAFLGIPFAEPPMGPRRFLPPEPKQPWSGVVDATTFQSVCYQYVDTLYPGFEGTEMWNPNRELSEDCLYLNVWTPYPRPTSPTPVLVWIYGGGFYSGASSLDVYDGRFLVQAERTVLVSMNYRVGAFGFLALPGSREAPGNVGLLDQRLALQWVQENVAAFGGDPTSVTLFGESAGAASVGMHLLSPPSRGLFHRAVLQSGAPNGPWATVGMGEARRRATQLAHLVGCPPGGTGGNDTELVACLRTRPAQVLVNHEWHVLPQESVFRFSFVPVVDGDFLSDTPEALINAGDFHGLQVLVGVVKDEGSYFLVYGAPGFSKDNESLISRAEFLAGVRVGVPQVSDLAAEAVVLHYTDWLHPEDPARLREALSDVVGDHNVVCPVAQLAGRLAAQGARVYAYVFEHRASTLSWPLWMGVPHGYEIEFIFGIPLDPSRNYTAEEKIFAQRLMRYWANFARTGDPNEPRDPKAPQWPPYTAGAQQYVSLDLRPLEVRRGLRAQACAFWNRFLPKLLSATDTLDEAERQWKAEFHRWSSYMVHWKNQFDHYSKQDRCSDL

Question: For C=CC(=C)CCC=C(C)C [Myrcene], which “properties shown in studies on laboratory animals” value (laboratory animals; myrcene, laboratory animals) is on record?
Answer: sedative, hypnotic, analgesic and muscle relaxant properties

Question: For C=C(C)[C@H]1CC=C(C)CC1 [Limonene], which “apoptosis (cell death)” value (breast cancer cells) is on record?
Answer: produces apoptosis

Question: What about the “effects suggested by studies on laboratory animals” value (laboratory animals; limonene, rise of serotonin and dopamine in the brain) of the same molecule?
Answer: anxiolytic effects

Question: For CC12CCC(CC1)C(C)(C)O2 [Eucalyptol, 1,8-cineol], which “in vitro anti-leukaemia activity” value (leukaemia) is on record?
Answer: in vitro anti-leukaemia properties

Question: Which “effect on monoamine oxidase enzyme (MAO)” value [1] does the source give for O=c1c(O)c(-c2ccc(O)c(O)c2)oc2cc(O)cc(O)c12 [quercitin, quercetin] here?
Answer: inhibits

Question: For CC1=CCC2CC1C2(C)C (stereo not drawn) [A-pinene, α-pinene], which acetylcholinesterase inhibition (acetylcholinesterase) is on record?
Answer: acetylcholinesterase inhibitor

Question: Which “CB2 cannabinoid receptor activity” value (CB2 cannabinoid receptor) does the source give for C=C1CC/C=C(\C)CC[C@@H]2[C@@H]1CC2(C)C [B-caryophyllene, β-caryophyllene] here?
Answer: CB2 cannabinoid receptor agonist

Question: And the “effects proven in animal models” value (laboratory animals; β-caryophyllene, animal models, not yet in humans)?
Answer: anti-inflammatory and analgesic effects

Question: For COc1cc(-c2cc(=O)c3c(O)c(C/C=C(\C)CCC=C(C)C)c(O)cc3o2)ccc1O [cannaflavin-A], which “effect on PGE-2” value (PGE-2) is on record?
Answer: inhibits

Question: What about the “anti-inflammatory power compared with aspirin” value (PGE-2; relative to aspirin) of the same molecule?
Answer: exponentially more powerful than aspirin

Question: With C=CC(C)(O)CCC=C(C)C (stereo not drawn) [Linalool] as the molecule, how does the “effects in laboratory animals” value (laboratory animals; linalool, mediated by adenosine A2A and glutamate receptors) read?
Answer: analgesic effects

Question: With O=c1cc(-c2ccc(O)cc2)oc2cc(O)cc(O)c12 [apigenin] as the molecule, how does the “action on the GABA receptors” value (GABA receptors) read?
Answer: anxiolytic and sedative
